Measurements from patent US8304419B2, “Chemical compounds” (priority 2007, dated 2012).
pIC50: −log10 of the molar value. Where a name gives a salt, the structure may show the parent alone.

What follows are compounds tested on HIV wild type (WTRVA) (assay: HeLa cell assay, wild type virus (WTRVA)). Settings: Human immunodeficiency virus 1, HeLa, HeLa cell assay; read-out: IC50 against WTRVA.
Assay type: cell-based, HIV-1
Set-up: scale not given here

Compound | pIC50
C=Cc1ccc(CNC(=O)c2[nH]c(C)nc2Cl)c(F)c1Oc1cc(Cl)cc(C#N)c1 [Example 269, 4-Chloro-N-({3-[(3-chloro-5-cyanophenyl)oxy]-4-ethenyl-2-fluorophenyl}methyl)-2-methyl-1H-imidazole-5-carboxamide] | > 8.00
Cc1nc(Cl)c(C(=O)NCc2ccc(Cl)c(Oc3cc(C#N)cc(C4CC4)c3)c2F)[nH]1 [Example 308, 4-chloro-N-({4-chloro-3-[(3-cyano-5-cyclopropylphenyl)oxy]-2-fluorophenyl}methyl)-2-methyl-1H-imidazole-5-carboxamide trifluoroacetate] | > 8.00
N#Cc1cc(Cl)cc(Oc2c(Cl)ccc(CNC(=O)c3[nH]ccc3Br)c2F)c1 [Example 204, 3-bromo-N-({4-chloro-3-[(3-chloro-5-cyanophenyl)oxy]-2-fluorophenyl}methyl)-1H-pyrrole-2-carboxamide] | > 8.00
N#Cc1cc(Oc2c(Cl)ccc(CNC(=O)c3[nH]cnc3Br)c2F)cc(C(F)(F)F)c1 [Example 286, 4-bromo-N-[(4-chloro-3-{[3-cyano-5-(trifluoromethyl)phenyl]oxy}-2-fluorophenyl)methyl]-1H-imidazole-5-carboxamide] | > 8.00
C=CCc1cc(C#N)cc(Oc2c(Cl)ccc(CNC(=O)c3[nH]cnc3Cl)c2F)c1 [Example 156, 4-chloro-N-[(4-chloro-3-{[3-cyano-5-(2-propen-1-yl)phenyl]oxy}-2-fluorophenyl)methyl]-1′-1H-imidazole-5-carboxamide] | > 8.00
Cc1nc(Br)c(C(=O)NCc2cc(Br)c(Br)c(Oc3cc(Cl)cc(C#N)c3)c2F)[nH]1 [Example 234, 4-bromo-N-({4,5-dibromo-3-[(3-chloro-5-cyanophenyl)oxy]-2-fluorophenyl}methyl)-2-methyl-1H-imidazole-5-carboxamide trifluoroacetate] | > 8.00
N#Cc1cc(CN2CCOCC2)cc(Oc2c(Cl)ccc(CNC(=O)c3[nH]cnc3Cl)c2F)c1 [Example 383, 4-chloro-N-[(4-chloro-3-{[3-cyano-5-(4-morpholinylmethyl)phenyl]oxy}-2-fluorophenyl)methyl]-1H-imidazole-5-carboxamide] | > 8.00
N#Cc1cc(Cl)cc(Oc2c(Cl)ccc(CNC(=O)c3[nH]c(N)nc3Cl)c2F)c1 [Example 230, 2-amino-4-chloro-N-({4-chloro-3-[(3-chloro-5-cyanophenyl)oxy]-2-fluorophenyl}methyl)-1H-imidazole-5-carboxamide trifluoroacetate] | > 8.00
Cc1nc(Br)c(C(=O)NCc2ccc(Br)c(Oc3cc(Cl)cc(C#N)c3)c2F)[nH]1 [Example 233, 4-bromo-N-({4-bromo-3-[(3-chloro-5-cyanophenyl)oxy]-2-fluorophenyl}methyl)-2-methyl-1H-imidazole-5-carboxamide] | > 8.00
N#Cc1cc(Oc2c(Cl)ccc(CNC(=O)c3[nH]cnc3Cl)c2F)cc(C(F)F)c1 [Example 309, 4-chloro-N-[(4-chloro-3-{[3-cyano-5-(difluoromethyl)phenyl]oxy}-2-fluorophenyl)methyl]-1H-imidazole-5-carboxamide] | > 8.00
N#Cc1cc(Oc2c(Cl)ccc(CNC(=O)c3[nH]c(N)nc3Cl)c2F)cc(C2CC2)c1 [Example 307, 2-amino-4-chloro-N-({4-chloro-3-[(3-cyano-5-cyclopropylphenyl)oxy]-2-fluorophenyl}methyl)-1H-imidazole-5-carboxamide trifluoroacetate] | > 8.00

Same assay, conditions: Human immunodeficiency virus 1, HeLa, HeLa-CD4-LTR-β-gal cells, wild type virus; read-out: WTRVA activity level

Compound | pIC50
N#Cc1cc(Cl)cc(Oc2c(Cl)ccc(CNC(=O)c3ccc(S(N)(=O)=O)cc3Cl)c2F)c1 [Example 14, 4-(aminosulfonyl)-2-chloro-N-({4-chloro-3-[(3-chloro-5-cyanophenyl)oxy]-2-fluorophenyl}methyl)benzamide] | 6.00 to 8.00
COc1ccc(C(=O)NCc2ccc(Cl)c(Oc3cc(Cl)cc(C#N)c3)c2)c(OC)c1 [Example 6, N-({4-chloro-3-[(3-chloro-5-cyanophenyl)oxy]phenyl}methyl)-2,4-bis(methyloxy)benzamide] | 6.00 to 8.00
CN(C)c1ccc2[nH]c(C(=O)NCc3ccc(Cl)c(Oc4cc(Cl)cc(C#N)c4)c3F)cc2c1 [Example 126, N-({4-chloro-3-[(3-chloro-5-cyanophenyl)oxy]-2-fluorophenyl}methyl)-5-(dimethylamino)-1H-indole-2-carboxamide] | > 8.00
CC(C)(C)OC(=O)N1CCO[C@@H](COc2ccc3[nH]c(C(=O)NCc4ccc(Cl)c(Oc5cc(Cl)cc(C#N)c5)c4F)cc3c2)C1 [Example 23, 1,1-dimethylethyl (2R)-2-{[(2-{[({4-chloro-3-[(3-chloro-5-cyanophenyl)oxy]-2-fluorophenyl}methyl)amino]carbonyl}-1H-indol-5-yl)oxy]methyl}-4-morpholinecarboxylate] | 6.00 to 8.00
N#Cc1cc(Cl)cc(Oc2c(Cl)ccc(CNC(=O)c3cc4cc(Br)ccc4[nH]3)c2F)c1 [Example 29, 5-bromo-N-({4-chloro-3-[(3-chloro-5-cyanophenyl)oxy]-2-fluorophenyl}methyl)-1H-indole-2-carboxamide] | 6.00 to 8.00
CSc1ncc(C(=O)NCc2ccc(Cl)c(Oc3cc(Cl)cc(C#N)c3)c2F)[nH]1 [Example 66, N-({4-chloro-3-[(3-chloro-5-cyanophenyl)oxy]-2-fluorophenyl}methyl)-2-(methylthio)-1H-imidazole-4-carboxamide trifluoroacetate] | 6.00 to 8.00
Cc1nc(Cl)c(C(=O)NCc2ccc(Cl)c(Oc3cc(Cl)cc(C#N)c3)c2F)[nH]1 [Example 137, 4-chloro-N-({4-chloro-3-[(3-chloro-5-cyanophenyl)oxy]-2-fluorophenyl}methyl)-2-methyl-1H-imidazole-5-carboxamide] | > 8.00
N#Cc1cc(Cl)cc(Oc2c(Cl)ccc(CNC(=O)c3cc4cc(Cl)ccc4s3)c2F)c1 [Example 51, 5-chloro-N-({4-chloro-3-[(3-chloro-5-cyanophenyl)oxy]-2-fluorophenyl}methyl)-1-benzothiophene-2-carboxamide trifluoroacetate] | < 6.00
N#Cc1cc(Cl)cc(Oc2c(Cl)ccc(CNC(=O)c3[nH]c(C4CC4)nc3Cl)c2F)c1 [Example 136, 4-chloro-N-({4-chloro-3-[(3-chloro-5-cyanophenyl)oxy]-2-fluorophenyl}methyl)-2-cyclopropyl-1H-imidazole-5-carboxamide trifluoroacetate] | > 8.00
N#Cc1cc(Cl)cc(Oc2c(Cl)ccc(CNC(=O)c3csc(-c4ccncc4)n3)c2F)c1 [Example 88, N-({4-chloro-3-[(3-chloro-5-cyanophenyl)oxy]-2-fluorophenyl}methyl)-2-(4-pyridinyl)-1,3-thiazole-4-carboxamide trifluoroacetate] | 6.00 to 8.00
N#Cc1cc(Cl)cc(Oc2c(Cl)ccc(CNC(=O)c3cc4cc(Cl)ccc4[nH]3)c2F)c1 [Example 109, 5-chloro-N-({4-chloro-3-[(3-chloro-5-cyanophenyl)oxy]-2-fluorophenyl}methyl)-1H-indole-2-carboxamide] | 6.00 to 8.00
CN(Cc1ccc(Cl)c(Oc2cc(Cl)cc(C#N)c2)c1F)C(=O)c1ncc[nH]1 [Example 130, N-({4-chloro-3-[(3-chloro-5-cyanophenyl)oxy]-2-fluorophenyl}methyl)-N-methyl-1H-imidazole-2-carboxamide] | > 8.00
CC(C)c1nc(Cl)c(C(=O)NCc2ccc(Cl)c(Oc3cc(Cl)cc(C#N)c3)c2F)[nH]1 [Example 135, 4-chloro-N-({4-chloro-3-[(3-chloro-5-cyanophenyl)oxy]-2-fluorophenyl}methyl)-2-(1-methylethyl)-1H-imidazole-5-carboxamide trifluoroacetate] | > 8.00
CS(=O)(=O)c1ccc(C(=O)NCc2ccc(Cl)c(Oc3cc(Cl)cc(C#N)c3)c2)c(Cl)c1 [Example 8, 2-chloro-N-({4-chloro-3-[(3-chloro-5-cyanophenyl)oxy]phenyl}methyl)-4-(methylsulfonyl)benzamide] | 6.00 to 8.00
N#Cc1cc(Cl)cc(Oc2c(Cl)ccc(CNC(=O)c3cc4cc(NC(=O)CCN)ccc4[nH]3)c2F)c1 [Example 116, 5-(β-alanylamino)-N-({4-chloro-3-[(3-chloro-5-cyanophenyl)oxy]-2-fluorophenyl}methyl)-1H-indole-2-carboxamide] | > 8.00
N#Cc1cc(Cl)cc(Oc2c(Cl)ccc(CNC(=O)c3cc4c5c(ccc4[nH]3)N(C(N)=O)CC5)c2F)c1 [Example 44, N^2-({4-chloro-3-[(3-chloro-5-cyanophenyl)oxy]-2-fluorophenyl}methyl)-7,8-dihydropyrrolo[3,2-e]indole-2,6(3H)-dicarboxamide] | > 8.00
CC(C)(C)OC(=O)Nc1cccc2cc(C(=O)NCc3ccc(Cl)c(Oc4cc(Cl)cc(C#N)c4)c3F)[nH]c12 [Example 112, 1,1-dimethylethyl (2-{[({4-chloro-3-[(3-chloro-5-cyanophenyl)oxy]-2-fluorophenyl}methyl)amino]carbonyl}-1H-indol-7-yl)carbamate] | 6.00 to 8.00
COc1ccc2cc(C(=O)NCc3ccc(Cl)c(Oc4cc(Cl)cc(C#N)c4)c3F)[nH]c2c1 [Example 21, N-({4-chloro-3-[(3-chloro-5-cyanophenyl)oxy]-2-fluorophenyl}methyl)-6-(methyloxy)-1H-indole-2-carboxamide] | 6.00 to 8.00
Cc1c(C(=O)NCc2ccc(Cl)c(Oc3cc(Cl)cc(C#N)c3)c2F)oc2ccccc12 [Example 48, N-({4-chloro-3-[(3-chloro-5-cyanophenyl)oxy]-2-fluorophenyl}methyl)-3-methyl-1-benzofuran-2-carboxamide trifluoroacetate] | 6.00 to 8.00
Cn1cncc1C(=O)NCc1ccc(Cl)c(Oc2cc(Cl)cc(C#N)c2)c1F [Example 67, N-({4-chloro-3-[(3-chloro-5-cyanophenyl)oxy]-2-fluorophenyl}methyl)-1-methyl-1H-imidazole-5-carboxamide trifluoroacetate] | 6.00 to 8.00
COc1ccc2c(C(=O)NCc3ccc(Cl)c(Oc4cc(Cl)cc(C#N)c4)c3)c[nH]c2c1 [Example 3, N-({4-chloro-3-[(3-chloro-5-cyanophenyl)oxy]phenyl}methyl)-6-(methyloxy)-1H-indole-3-carboxamide] | < 6.00
